Columns and labels:
Conditions in all cases: 72 h
[1] = system: Hs578T
Description: (§1)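 Drug sensitivity and resistance testing (DSRT) of breast cancer cell lines in 384-well plates, 5 concentrations in 10-fold dilutions over a compound-specific 10,000-fold range. After 72 h, cytotoxicity was read by CellTox Green fluorescence and viability by CellTiter-Glo luminescence (multiplexed), normalised to DMSO and benzethonium chloride controls. EC50 is the inflection point of the fitted dose-response curve (bottom asymptote free, so it can be relative for partial curves) and is censored at the highest tested concentration. Rows with DSS 0 (no meaningful response) were excluded.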

[2] = system: BT-549
Description: as §1

[3] = system: CAL-85-1
Description: as §1

[4] = system: CAL-51
Description: as §1

[5] = system: MDA-MB-468
Description: as §1

[6] = system: BT-474
Description: as §1

| Structure (SMILES) | EC50, CellTox Green [1] [nM] | EC50, CellTox Green [2] [nM] | EC50, CellTox Green [3] [nM] | EC50, CellTox Green [4] [nM] | EC50, CellTox Green [5] [nM] | EC50, CellTox Green [6] [nM] |
| --- | --- | --- | --- | --- | --- | --- |
| COc1ccc(S(=O)(=O)Nc2cccnc2Nc2ccc(O)cc2)cc1 [ABT-751] | 1410 | 190 | 194 | 7380 | 2.99 |  |
| COc1cc(Nc2c(C#N)cnc3cc(OCCCN4CCN(C)CC4)c(OC)cc23)c(Cl)cc1Cl [Bosutinib] | 576 | 7580 | 1950 | 1550 | 3540 | 2830 |
| CCN(CC)CCCC(C)Nc1ccnc2cc(Cl)ccc12 (configuration not stated) [Chloroquine] | 18800 | 24800 | 20800 | 50800 | 568 | 4950 |
| Nc1ccn([C@@H]2O[C@H](CO)[C@@H](O)C2(F)F)c(=O)n1 [Gemcitabine] |  |  | 99.7 | 7.56 | 5.64 |  |
| CC(=O)[C@]1(O)Cc2c(O)c3c(c(O)c2[C@@H](O[C@H]2C[C@H](N)[C@H](O)[C@H](C)O2)C1)C(=O)c1ccccc1C3=O [Idarubicin] |  |  | 198 | 148 | 82.7 | 53.5 |
| C=CCn1c(=O)c2cnc(Nc3ccc(N4CCN(C)CC4)cc3)nc2n1-c1cccc(C(C)(C)O)n1 [MK1775] | 2130 | 1430 | 331 | 154 | 156 | 928 |
| CO[C@@H]1[C@H](N(C)C(=O)c2ccccc2)C[C@H]2O[C@]1(C)n1c3ccccc3c3c4c(c5c6ccccc6n2c5c31)C(=O)NC4 [Midostaurin] | 997 | 1060 |  | 29.6 | 384 |  |
| CO[C@@]12[C@H](COC(N)=O)C3=C(C(=O)C(C)=C(N)C3=O)N1C[C@@H]1N[C@@H]12 [Mitomycin C] | > 10000 |  |  | 307 | 27.6 |  |
| CC1(C)CCC(c2ccc(Cl)cc2)=C(CN2CCN(c3ccc(C(=O)NS(=O)(=O)c4ccc(N[C@H](CCN5CCOCC5)CSc5ccccc5)c(S(=O)(=O)C(F)(F)F)c4)cc3)CC2)C1 [Navitoclax] |  |  | 517 | 906 | 1740 | 1540 |
| O=[N+]([O-])c1ccc2c(c1)S(=O)(=O)C=C2 [Stattic] | 1710 | 1070 | 1110 | 1390 | 1130 | 1890 |
| O=C(CCCCCCC(=O)Nc1ccccc1)NO [Vorinostat] | 948 | > 10000 |  | 2660 | 6570 | 6410 |
